# Patent US12447172B2, “Use of the miR-27a-5p microRNA for treating Clostridium difficile-induced bowel inflammation” (priority 2018, dated 2025)
# Tests used:
# [1] = test system: IκB-α (NF-κB pathway); test: IκB-α Western blot of cecal lysates (NF-κB pathway activation); type: in vivo, C57BL/6 mice; conditions: infected, mimic-treated mice, D2 post-infection
# [2] = test system: C. difficile wild-type strain R20291 infection
# [3] = test system: C. difficile wild-type strain R20291 infection; test: Clinical manifestations in the mouse model of CDI
# [4] = test system: C. difficile; test: Bacterial count in cecal contents at D2 post-infection
# [5] = test system: miR-27a-5p expression in Caco-2 cells; test: miR-27a-5p expression (qRT-PCR) in Caco-2 cells pretreated with NF-κB and MAPK pathway inhibitors, then incubated with FliC or C. difficile R20291; conditions: 20 μM added 1 h before FliC or strain R20291
# [6] = mice infected with WT R20291, mimic 3 x 50 μg IV, D1 post-infection
# [7] = mice infected with WT R20291, mimic 3 x 50 μg IV, D2 post-infection
# [8] = uninfected mice (negative control) treated with mimic, D1
# [9] = uninfected mice (negative control) treated with mimic, D2
molecule,measurement,setting,value
"miR-27a-mimic: Synthetic double-stranded RNA mimic by Riboxx (SEQ ID NO: 2/3, M-00303-0200 CONmiR Mimic in vivo), given IV mixed with in vivo-jetPEI (chain 1 AGGGCUUAGCUGCUUGUGACCCCC; chain 2 GGGGGUCACAAGCAGCUAAGCCCU; formulated with in vivo-jetPEI, further chemistry not given here)",IκB-α in the cecum (NF-κB pathway activation),[1],no activation of IκB-α was detected
same,"mice with a cecum with little or no evidence of inflammation and normal, mucus-free cecal contents","[2]; infected, mimic-treated group, D2 post-infection",6 of 10
same,inflammatory appearance of the cecum,"[2]; infected, mimic-treated mice, D2 post-infection, macroscopic",largely attenuated
same,inflammation score of the 3 treated mice that showed diarrhea at D2,"[2]; infected, mimic-treated, D2 post-infection",high inflammation score comparable to infected and untreated mice
same,efficacy rate,"[2]; mouse model of infection, 3 of 10 treated mice affected",70%
same,histological inflammation score (Table 3),"[2]; mouse, in vivo",0
same,histologic score of inflammation (Table 3),"[2]; the infected, mimic-treated mice with little or no inflammation, D2, untreated infected mice 6 to 9",less than 6
same,Bristly hair D1 (animals affected/group),[3]; [6],0/10
same,Reduced activity D1 (animals affected/group),[3]; [6],0/10
same,Bristly hair D2 (animals affected/group),[3]; [7],0/10
same,Reduced activity D2 (animals affected/group),[3]; [7],1/10
same,Diarrhea D1 (animals affected/group),"[3]; mice infected with WT R20291, mimic/in vivo-jetPEI 3 x 50 μg IV, D1 post-infection",0/10
same,Diarrhea D2 (animals affected/group),"[3]; mice infected with WT R20291, mimic/in vivo-jetPEI 3 x 50 μg IV, D2 post-infection",3/10
same,Diarrhea D2 (animals affected/group),"[3]; mice infected with WT R20291, mimic/in vivo-jetPEI 3 x 50 μg IV, D2 post-infection, listed as miR27-a-mimic",3 out of 10
same,clinical and pathological manifestations caused by the bacteria,"[3]; mouse model of CDI, mimic administered intravenously",significantly reduces
same,Diarrhea D1 (animals affected/group),"[3]; uninfected mice (negative control) treated with mimic 3 x 50 μg IV, D1",0/9
same,Diarrhea D2 (animals affected/group),"[3]; uninfected mice (negative control) treated with mimic 3 x 50 μg IV, D2",0/9
same,Bristly hair D1 (animals affected/group),[3]; [8],0/9
same,Reduced activity D1 (animals affected/group),[3]; [8],0/9
same,Bristly hair D2 (animals affected/group),[3]; [9],0/9
same,Reduced activity D2 (animals affected/group),[3]; [9],0/9
same,bacterial count in the cecal contents,"[4]; WT-infected, mimic-treated mice",3.7 × 10^9 CFU/g
same,rate of intestinal colonization compared with untreated WT-infected mice,[4]; cecal contents,quite equivalent
Cc1ccc2nc(NCCN)c3ncc(C)n3c2c1 [BMS 345541],inhibition of miR-27a-5p expression,[5],roughly 40 fold
